# Measured values from PubChem BioAssay (NCI).
#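 Cultured in 96-well plates, cells were exposed to test compound for 48 hours across five concentrations. Here, GI50 denotes the concentration required for 50% inhibition of growth. TGI is the concentration that stops growth completely.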
# How the values were obtained:
# Assay in all cases: growth of human tumour cells (NCI), 48 h
# SR leukemia = tested on: SR leukemia
# M14 melanoma = tested on: M14 melanoma
# HCT-116 colon = tested on: HCT-116 colon
# SF-539 CNS = tested on: SF-539 CNS
# LOX IMVI melanoma = tested on: LOX IMVI melanoma
# NCI-H23 lung = tested on: NCI-H23 lung
# K-562 leukemia = tested on: K-562 leukemia
# NCI-H522 lung = tested on: NCI-H522 lung
# 786-0 renal = tested on: 786-0 renal
# CCRF-CEM leukemia = tested on: CCRF-CEM leukemia
# KM12 colon = tested on: KM12 colon
# MDA-MB-231 breast = tested on: MDA-MB-231 breast
# NCI-H226 lung = tested on: NCI-H226 lung
# U251 CNS = tested on: U251 CNS
# HCC-2998 colon = tested on: HCC-2998 colon
# PC-3 prostate = tested on: PC-3 prostate
# UACC-62 melanoma = tested on: UACC-62 melanoma
# BT-549 breast = tested on: BT-549 breast
# MCF7 breast = tested on: MCF7 breast
# NCI-H460 lung = tested on: NCI-H460 lung
# SK-MEL-2 melanoma = tested on: SK-MEL-2 melanoma
# TK-10 renal = tested on: TK-10 renal
# SNB-19 CNS = tested on: SNB-19 CNS
# COLO 205 colon = tested on: COLO 205 colon
# MOLT-4 leukemia = tested on: MOLT-4 leukemia
# SW-620 colon = tested on: SW-620 colon
# SF-295 CNS = tested on: SF-295 CNS
# SF-268 CNS = tested on: SF-268 CNS
# SN12C renal = tested on: SN12C renal
# HOP-92 NSCLC = tested on: HOP-92 NSCLC
# SK-OV-3 ovarian = tested on: SK-OV-3 ovarian
# OVCAR-5 ovarian = tested on: OVCAR-5 ovarian
# OVCAR-3 ovarian = tested on: OVCAR-3 ovarian
# EKVX NSCLC = tested on: EKVX NSCLC
# SK-MEL-28 melanoma = tested on: SK-MEL-28 melanoma
# RPMI-8226 leukemia = tested on: RPMI-8226 leukemia
# DU-145 prostate = tested on: DU-145 prostate
# UO-31 renal = tested on: UO-31 renal
# NCI/ADR-RES ovarian = tested on: NCI/ADR-RES ovarian
# MDA-MB-435 = tested on: MDA-MB-435
# ACHN renal = tested on: ACHN renal
# HOP-62 NSCLC = tested on: HOP-62 NSCLC
# UACC-257 melanoma = tested on: UACC-257 melanoma
# RXF 393 renal = tested on: RXF 393 renal
# HS 578T breast = tested on: HS 578T breast
# A498 renal = tested on: A498 renal
# IGROV1 ovarian = tested on: IGROV1 ovarian
# HCT-15 colon = tested on: HCT-15 colon
# OVCAR-4 ovarian = tested on: OVCAR-4 ovarian
# HL-60(TB) leukemia = tested on: HL-60(TB) leukemia
# OVCAR-8 ovarian = tested on: OVCAR-8 ovarian
# A549 NSCLC = tested on: A549 NSCLC
# CAKI-1 renal = tested on: CAKI-1 renal
# SK-MEL-5 melanoma = tested on: SK-MEL-5 melanoma
compound,measurement,setting,value
O[C@H]1C=C2[C@H](C[C@@H]1O)CN1C[C@H]2c2cc3c(cc21)OCO3,GI50,SR leukemia,41 µM
same,TGI,SR leukemia,> 100 µM
same,GI50,M14 melanoma,24.9 µM
same,TGI,M14 melanoma,> 100 µM
same,GI50,HCT-116 colon,21.6 µM
same,TGI,HCT-116 colon,> 100 µM
same,GI50,SF-539 CNS,22.4 µM
same,TGI,SF-539 CNS,80.2 µM
same,GI50,LOX IMVI melanoma,18.7 µM
same,TGI,LOX IMVI melanoma,55.5 µM
same,GI50,NCI-H23 lung,29.3 µM
same,TGI,NCI-H23 lung,96.6 µM
same,GI50,K-562 leukemia,49.9 µM
same,TGI,K-562 leukemia,> 100 µM
same,GI50,NCI-H522 lung,94.5 µM
same,TGI,NCI-H522 lung,> 100 µM
same,GI50,786-0 renal,25.5 µM
same,TGI,786-0 renal,> 100 µM
same,GI50,CCRF-CEM leukemia,> 100 µM
same,TGI,CCRF-CEM leukemia,> 100 µM
same,GI50,KM12 colon,23.4 µM
same,TGI,KM12 colon,> 100 µM
same,GI50,MDA-MB-231 breast,33 µM
same,TGI,MDA-MB-231 breast,> 100 µM
same,GI50,NCI-H226 lung,22.1 µM
same,TGI,NCI-H226 lung,70.3 µM
same,GI50,U251 CNS,27.6 µM
same,TGI,U251 CNS,94.1 µM
same,GI50,HCC-2998 colon,20.4 µM
same,TGI,HCC-2998 colon,56 µM
same,GI50,PC-3 prostate,49.1 µM
same,TGI,PC-3 prostate,> 100 µM
same,GI50,UACC-62 melanoma,22.1 µM
same,TGI,UACC-62 melanoma,96.2 µM
same,GI50,BT-549 breast,37.8 µM
same,TGI,BT-549 breast,> 100 µM
same,GI50,MCF7 breast,28.8 µM
same,TGI,MCF7 breast,> 100 µM
same,GI50,NCI-H460 lung,21.7 µM
same,TGI,NCI-H460 lung,> 100 µM
same,GI50,SK-MEL-2 melanoma,99.5 µM
same,TGI,SK-MEL-2 melanoma,> 100 µM
same,GI50,TK-10 renal,20.3 µM
same,TGI,TK-10 renal,76.6 µM
same,GI50,SNB-19 CNS,24.9 µM
same,TGI,SNB-19 CNS,> 100 µM
same,GI50,COLO 205 colon,21.4 µM
same,TGI,COLO 205 colon,> 100 µM
same,GI50,MOLT-4 leukemia,> 100 µM
same,TGI,MOLT-4 leukemia,> 100 µM
same,GI50,SW-620 colon,49.1 µM
same,TGI,SW-620 colon,> 100 µM
same,GI50,SF-295 CNS,15.1 µM
same,TGI,SF-295 CNS,67.2 µM
same,GI50,SF-268 CNS,25.4 µM
same,TGI,SF-268 CNS,86.5 µM
same,GI50,SN12C renal,18 µM
same,TGI,SN12C renal,58.9 µM
same,GI50,HOP-92 NSCLC,83.1 µM
same,TGI,HOP-92 NSCLC,> 100 µM
same,GI50,SK-OV-3 ovarian,6.15 µM
same,TGI,SK-OV-3 ovarian,51.1 µM
same,GI50,OVCAR-5 ovarian,30.2 µM
same,TGI,OVCAR-5 ovarian,> 100 µM
same,GI50,OVCAR-3 ovarian,42.1 µM
same,TGI,OVCAR-3 ovarian,84.6 µM
same,GI50,EKVX NSCLC,39.6 µM
same,TGI,EKVX NSCLC,> 100 µM
same,GI50,SK-MEL-28 melanoma,19 µM
same,TGI,SK-MEL-28 melanoma,87.7 µM
same,GI50,RPMI-8226 leukemia,35.8 µM
same,TGI,RPMI-8226 leukemia,> 100 µM
same,GI50,DU-145 prostate,19 µM
same,TGI,DU-145 prostate,> 100 µM
same,GI50,UO-31 renal,61.2 µM
same,TGI,UO-31 renal,> 100 µM
same,GI50,NCI/ADR-RES ovarian,70.5 µM
same,TGI,NCI/ADR-RES ovarian,> 100 µM
same,GI50,MDA-MB-435,20.1 µM
same,TGI,MDA-MB-435,90.4 µM
same,GI50,ACHN renal,8.92 µM
same,TGI,ACHN renal,36.3 µM
same,GI50,HOP-62 NSCLC,30.5 µM
same,TGI,HOP-62 NSCLC,> 100 µM
same,GI50,UACC-257 melanoma,41.6 µM
same,TGI,UACC-257 melanoma,> 100 µM
same,GI50,RXF 393 renal,50.3 µM
same,TGI,RXF 393 renal,> 100 µM
same,GI50,HS 578T breast,79.9 µM
same,TGI,HS 578T breast,> 100 µM
same,GI50,A498 renal,81.8 µM
same,TGI,A498 renal,> 100 µM
same,GI50,IGROV1 ovarian,62 µM
same,TGI,IGROV1 ovarian,> 100 µM
same,GI50,HCT-15 colon,30.1 µM
same,TGI,HCT-15 colon,> 100 µM
same,GI50,OVCAR-4 ovarian,32.7 µM
same,TGI,OVCAR-4 ovarian,73 µM
same,GI50,HL-60(TB) leukemia,23.3 µM
same,TGI,HL-60(TB) leukemia,87.5 µM
same,GI50,OVCAR-8 ovarian,30.2 µM
same,TGI,OVCAR-8 ovarian,> 100 µM
same,GI50,A549 NSCLC,28.2 µM
same,TGI,A549 NSCLC,88.8 µM
same,GI50,CAKI-1 renal,23.5 µM
same,TGI,CAKI-1 renal,61.1 µM
same,GI50,SK-MEL-5 melanoma,29.4 µM
same,TGI,SK-MEL-5 melanoma,> 100 µM
